Laboratory results from patent US8084575B2, “Millisecond activation switch for seven-transmembrane proteins” (Julius-Maximilians-Universitat, priority 2002, dated 2011).
Entries after “also recorded” stand apart in the source; their conditions may differ. Read-outs that look alike come from different tables or passages of the source.

Assays:
α2AAR-cam [1] = target: T1, α2AAR-cam (Mus musculus, UniProt Q01338); assay: [3H]UK14304 binding to membranes containing α2AAR-cam with exogenous Go protein; settings: for Kd: read-out: Kd of agonist binding
T1 construct: expressed in transfected cells; GIRK1 and GIRK4 co-transfected in A8)
Experimental: Pharmacology. […] Saturation and competition binding studies were analysed with the program Prism to calculate KD- and Ki-values.
Third, binding of G-proteins to receptors is known to enhance formation of the active, agonist-bound state.

PTHR-cam = target: T2, PTHR-cam (Homo sapiens, UniProt Q03431, INS395[…]); assay: FRET (ratio F*535/F*480) in single HEK293 cells expressing PTHR-cam; format: cell-based; settings: intact HEK293 cells; PTH 1 μM, PTH(7-34) 3 μM
T2 construct: expressed in transfected cells

α2AAR-cam [2] = target: T1, α2AAR-cam; assay: Competition ligand binding, α2AAR-cam stably expressed in HEK293 cells; settings: read-out: noradrenaline affinity Ki
Experimental: (§1) Pharmacology. Ligand binding, receptor number determination, cAMP assays, measurement of α2A-adrenergic receptor-activated GIRK currents and reconstitution of receptor-Go coupling were measured as previously described (Vilardaga, (2001) loc. cit.; Bünemann, J. Bio. Chem. 276 (2001), 47512-47517; Vilardaga, J. Biol. Chem. 277 (2002), 8121-8129; Richardson, J. Biol. Chem. 274 (1999), 13525-13533). Saturation and competition binding studies were analysed with the program Prism to calculate KD- and Ki-values.

α2AAR = target: T3, α2AAR (Mus musculus, UniProt Q01338); assay: Competition ligand binding, wild-type α2AAR stably expressed in HEK293 cells; settings: read-out: noradrenaline affinity Ki
T3 construct: expressed in transfected cells
T3 sequence (Q01338 with tags, fused parts or gaps): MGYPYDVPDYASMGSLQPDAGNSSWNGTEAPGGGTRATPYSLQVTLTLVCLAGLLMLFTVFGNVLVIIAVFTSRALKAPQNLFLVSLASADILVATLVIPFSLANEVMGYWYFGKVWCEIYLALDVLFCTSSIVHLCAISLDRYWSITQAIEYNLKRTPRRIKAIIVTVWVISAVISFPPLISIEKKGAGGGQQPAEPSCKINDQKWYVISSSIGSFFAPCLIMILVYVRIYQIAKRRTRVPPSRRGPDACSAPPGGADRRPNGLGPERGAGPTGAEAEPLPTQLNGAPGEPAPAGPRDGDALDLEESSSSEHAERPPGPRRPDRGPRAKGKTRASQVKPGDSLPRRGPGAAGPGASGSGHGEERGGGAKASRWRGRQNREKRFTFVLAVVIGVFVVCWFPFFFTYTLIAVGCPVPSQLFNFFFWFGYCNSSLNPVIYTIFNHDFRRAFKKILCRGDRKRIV
Experimental: as §1

α2AAR-cam [3] = target: T1, α2AAR-cam; format: cell-based
[4] = tested on: PTHR-CFP3-loop and PTHR-YFPC-term; settings: absence or presence of PTH 1 μM
α2AAR-cam [5] = target: T1, α2AAR-cam; assay: FRET in neuronal PC-12 cells stably expressing α2AAR-cam, agonist versus inverse agonists; format: cell-based; settings: 100 μM
Experimental: As documented in the appended examples, an illustrative recombinant α2A-adrenergic receptor (α2AAR-cam) was employed, whereby said α2A-adrenergic receptor (α2AAR-cam) comprises the two detectable labels YFP and CFP on the first intracellular loop and the third intracellular loop.
The α2AAR-cam receptors were stably expressed in the neuronal cell line PC-12. […] The signals were recorded before and after exposure to agonist (NA: noradrenaline, 100 μM) and two different inverse agonists (Yoh: yohimbine and Rau:rauwolscine, 100 μM).

A2A-CFP14/10-YFPC33 = assay: Intramolecular FRET (nFRET) in HEK293 cells transfected with A2A-CFP14/10-YFPC33; format: cell-based, human
Experimental: 12 h post transfection cells were replated on glass coverslips coated with poly-L-lysine and cultured for another 12-36 h.
Cells were continuously superfused with control solution (in mM: 140 NaCl; 5.4 KCl; 2 CaCl2; 1 mM MgCl2; 10 mM Glucose and 10 HEPES/NaOH pH 7.3) using a fast solenoid valve operated superfusion system ALA-VM8 (ALA Scientific Instruments).

α2AAR-cam [6] = target: T1, α2AAR-cam; assay: FRET in membranes containing α2AAR-cam in the presence of Go proteins; format: biochemical
Experimental: Membrane preparation. Membrane fractions were obtained after two centrifugations at 4° C., first at 800×g for 10 min and the second at 100,000×g for 30 min. Membranes were treated with 6 M urea in 20 mM Hepes, pH 7.4, for 30 min on ice followed by centrifugation at 100,000×g for 15 min. After two washing steps at 4° C. in buffer B the membranes were resuspended in a buffer A (without BSA) and immediately used in the experiments. 20 μl aliquots of membranes were subjected to fluorescence microscopy similar to intact cells using a 20× objective.

α2AAR-cam [7] = target: T1, α2AAR-cam; assay: α2A-adrenergic receptor-activated whole cell GIRK currents in HEK293 cells; format: cell-based
Experimental: as §1
Electrophysiology. Whole cell GIRK currents were measured in HEK293 cells stably expressing 6 pmol/mg membrane protein α2AR-cam 20-28 h after transient transfection with GIRK1 and GIRK4 as described previously (Bünemann, (2001), loc. cit.). Membrane currents were recorded using an EPC 9 amplifier and Pulse software (HEKA Instruments) for voltage control, data acquisition and data evaluation. Experimental conditions such as patch pipettes, internal and external solutions, voltage-clamp protocol as well as the superfusion system were the same as described previously (Bünemann, (2001), loc. cit.).

A2A receptors = assay: 3H-NECA radioligand binding, adenosine receptor constructs in transiently transfected COS cells; set-up: species or system human
Experimental: FIG. 12: Pharmacological properties of the Adenosine receptor constructs. A-B) Comparison between the binding (A) and signalling properties (B) of several adenosine receptor constructs with their respective wild-type receptor in transiently transfected COS cells. Adenylylcyclases activity was determined in membranes from transiently transfected COS cells as previously published (Jakobs et al., J cyclic Nucleotide Res 2 (1976) 381-392, Klotz et al., Naunyn-Schmiedeberg's Arch Pharmacol 357 (1998) 1-9). […] Data are the mean±sd of at least 3 separate experiments.

Brc1c(NC2=NCCN2)ccc2nccnc12 [UK14304]
decrease of binding affinity in presence of GTPγS (α2AAR-cam [1]; 10 μM GTPγS): ≈ 3 fold
Kd (α2AAR-cam [1]; exogenous Go (receptor:Go 1:100), without GTPγS): 3.4 ± 0.8 nM
Kd (α2AAR-cam [1]; exogenous Go, in presence of 10 μM GTPγS): 9.6 ± 1.1 nM

PTH7-34: truncated variant of PTH, a low affinity antagonist (LMHNLGKHLNSMERVEWLRKKLQDVHNF; Parathyroid hormone; UniProt P01270 38-65, looked up, fragment)
change in FRET signal (PTHR-cam): failed to induce a change in FRET

NC[C@H](O)c1ccc(O)c(O)c1 [noradrenaline]
Ki (α2AAR-cam [2]): 16700 ± 1400 nM
Ki (α2AAR): 5000 ± 800 nM
change of FRET signal, given alone (α2AAR-cam [3]): decline of the FRET signal; also recorded: rapid decrease of the FRET signal
maximal apparent rate constant kobs (α2AAR-cam [3]): ~26 s⁻¹
time constant required for receptor activation (α2AAR-cam [3]): less than 40 ms
times faster than activation of chemically labelled purified β2-adrenergic receptors (α2AAR-cam [3]): more than 5000 times

Clc1cccc(Cl)c1N=C1NCCN1 [clonidine]
FRET signal compared to the full agonist noradrenaline (α2AAR-cam [3]): three-fold smaller
effect of simultaneous addition on noradrenaline response (α2AAR-cam [3]): restored this response back to the partial response

pertussis toxin
effect of inactivating Gi and Go on noradrenaline-induced FRET signal (α2AAR-cam [3]): did not affect

PTH: parathyroid hormone, agonist of the PTH receptor
intermolecular FRET [4]: no FRET

COC(=O)[C@H]1[C@H]2C[C@H]3c4[nH]c5ccccc5c4CCN3C[C@H]2CC[C@@H]1O [rauwolscine]
conformational change of the receptor relative to agonist noradrenaline (α2AAR-cam [5]): opposite conformational changes

Nc1ncnc2c1ncn2[C@@H]1O[C@H](CO)[C@@H](O)[C@H]1O [adenosine]
time for nFRET to return to initial value after withdrawal of agonist (A2A-CFP14/10-YFPC33): 5 to 10 s

Nc1nc2c(ncn2[C@@H]2O[C@H](COP(=O)(O)OP(=O)(O)OP(O)(O)=S)[C@@H](O)[C@H]2O)c(=O)[nH]1 [GTPγS]
reduction of the binding of 5 nM [3H]UK14304 (α2AAR-cam [1]; GTPγS 10 μM, Go present): more than 50%
effect on FRET signal of saturating concentrations of UK14304 (α2AAR-cam [6]; GTPγS): did not affect
reduction of FRET signals caused by 5 nM UK14304 (α2AAR-cam [6]; GTPγS 10 μM, Go present): more than 50%

α2AAR-cam: mouse α2A-adrenergic receptor with YFP in third intracellular loop and CFP on C-terminus, SEQ ID NOS: 11 and 12
speed of GIRK current activation versus wild type α2AAR (α2AAR-cam [7]): not faster than the wild type

Cc1ccc(N(CC2=NCCN2)c2cccc(O)c2)cc1 [phentolamine]
change of FRET signal, given alone (α2AAR-cam [3]): did not alter the FRET signal
effect on the noradrenaline-induced FRET signal (α2AAR-cam [3]): rapidly reverted the noradrenaline-induced signal

CCNC(=O)[C@H]1O[C@@H](n2cnc3c(N)ncnc32)[C@H](O)[C@@H]1O [^3H-NECA]
radioligand binding compared with wild-type A2A receptor (A2A receptors): no significant difference

COC(=O)[C@@H]1[C@H]2C[C@H]3c4[nH]c5ccccc5c4CCN3C[C@@H]2CC[C@@H]1O [yohimbine]
conformational change of the receptor relative to agonist noradrenaline (α2AAR-cam [5]): opposite conformational changes
